Assay [1] has as its system Spontaneously hypertensive rats (SHR). Kind of assay: Acute Efficacy in Spontaneously Hypertensive Rats (SHR), telemetry blood pressure. Type of assay: in vivo, rat. As to conditions: single oral gavage. In short, it runs like this:
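Male SHR fitted with aortic telemetry transmitters and recovered 14 days; conscious blood pressure sampled 30 s every 10 min. Single oral gavage dose (vehicle 10% transcutol/20% Cremophor/70% water); hourly SBP change versus prior-day vehicle baseline, reported as maximum peak decrease.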

Another assay concerns the target T1, sGC α1/β1 heterodimer (Homo sapiens, UniProt Q02108+Q02153).
T1 construct: expressed in transfected cells
T1 sequence (Q02108 1-690): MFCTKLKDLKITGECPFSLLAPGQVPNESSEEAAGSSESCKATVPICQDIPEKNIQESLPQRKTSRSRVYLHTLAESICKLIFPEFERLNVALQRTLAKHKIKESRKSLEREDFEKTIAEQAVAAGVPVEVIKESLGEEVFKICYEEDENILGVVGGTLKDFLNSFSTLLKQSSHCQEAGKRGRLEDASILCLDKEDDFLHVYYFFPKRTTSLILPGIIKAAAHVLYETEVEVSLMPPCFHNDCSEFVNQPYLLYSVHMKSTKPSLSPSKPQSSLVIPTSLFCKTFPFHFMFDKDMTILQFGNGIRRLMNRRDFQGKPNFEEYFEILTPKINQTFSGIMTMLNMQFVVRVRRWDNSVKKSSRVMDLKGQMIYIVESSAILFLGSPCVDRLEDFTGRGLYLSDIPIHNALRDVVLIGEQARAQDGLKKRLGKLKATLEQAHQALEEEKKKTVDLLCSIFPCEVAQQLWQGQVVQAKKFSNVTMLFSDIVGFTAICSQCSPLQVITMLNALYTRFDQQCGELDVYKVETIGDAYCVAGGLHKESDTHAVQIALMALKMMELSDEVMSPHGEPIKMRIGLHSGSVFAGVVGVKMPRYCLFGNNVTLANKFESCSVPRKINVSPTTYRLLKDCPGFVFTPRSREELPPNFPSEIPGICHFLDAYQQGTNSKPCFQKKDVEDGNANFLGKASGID
T1 sequence (Q02153 1-619): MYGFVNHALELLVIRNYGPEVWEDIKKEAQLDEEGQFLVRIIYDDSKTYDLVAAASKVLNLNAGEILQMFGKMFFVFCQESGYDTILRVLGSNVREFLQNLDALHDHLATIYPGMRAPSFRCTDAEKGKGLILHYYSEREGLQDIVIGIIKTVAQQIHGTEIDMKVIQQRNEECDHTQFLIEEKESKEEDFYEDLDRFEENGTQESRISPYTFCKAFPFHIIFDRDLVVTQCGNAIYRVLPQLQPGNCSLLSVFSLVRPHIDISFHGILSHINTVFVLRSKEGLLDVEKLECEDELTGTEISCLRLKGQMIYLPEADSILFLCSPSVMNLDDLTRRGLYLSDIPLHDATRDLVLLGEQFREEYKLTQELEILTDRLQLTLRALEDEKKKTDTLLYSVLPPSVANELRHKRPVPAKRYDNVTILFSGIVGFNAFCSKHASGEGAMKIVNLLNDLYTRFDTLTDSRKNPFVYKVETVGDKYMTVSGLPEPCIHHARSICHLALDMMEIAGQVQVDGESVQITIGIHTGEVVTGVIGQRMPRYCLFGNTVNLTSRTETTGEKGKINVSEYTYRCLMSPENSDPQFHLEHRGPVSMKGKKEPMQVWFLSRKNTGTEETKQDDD
Kind of assay: Cell-Based sGC Functional Assay (CASA Assay), cGMP generation in CHO-K1/sGC cells.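 Further: reference Compound A is a published heme-dependent sGC activator.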 As to conditions: maximum cGMP production of Compound A set to 100% activation, read-out: % Act. (percent activation relative to Compound A). Put shortly: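 Intracellular cGMP quantified by HTRF competition after 1 h, 37 °C compound exposure, with or without 1 μM DETA-NO, in stable CHO-K1/sGC α1/β1 cells (4×10^5/mL; buffer with 0.5 mM IBMX, 5 mM MgCl2, 10 mM HEPES, 0.05% BSA; 2.5% DMSO). Activation normalized to reference Compound A maximum; 4P fit.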

`Nc1nc(-c2cn3ncnc3c(CCC(F)(F)C(F)(F)F)n2)nc2c1C(c1ccccn1)(C1CC1)C(=O)N2` (stereo not drawn) [Example 114A, 4-amino-5-cyclopropyl-2-(8-(3,3,4,4,4-pentafluorobutyl)-[1,2,4]triazolo[1,5-a]pyrazin-6-yl)-5-(pyridin-2-yl)-5,7-dihydro-6H-pyrrolo[2,3-d]pyrimidin-6-one]: in assay [1] (P.O. 1 mpk), the “Maximum peak decrease of systolic blood pressure (SBP) in SHR, Cat.” value (shortened to “Maximum peak decrease”) is on record as “B (Category B=SBP in SHRs 20-40 mmHg)”. In addition, the Emax on sGC α1/β1 heterodimer was 122%.
For `Nc1nc(-c2cn3ncnc3c(CCCC(F)(F)F)n2)nc2c1C(c1ccccn1)(C1CC1)C(=O)N2` (stereo not drawn) [Example 115A, 4-amino-5-cyclopropyl-5-(pyridin-2-yl)-2-(8-(4,4,4-trifluorobutyl)-[1,2,4]triazolo[1,5-a]pyrazin-6-yl)-5H-pyrrolo[2,3-d]pyrimidin-6(7H)-one], the “Maximum peak decrease” value in assay [1] (P.O. 1 mpk) was “B (Category B=SBP in SHRs 20-40 mmHg)”. Besides, on sGC α1/β1 heterodimer, the Emax is 118%.
`C[C@@]1(c2ccc(F)cc2)C(=O)Nc2nc(-c3cn4ncnc4c(CCC(F)(F)C(F)(F)F)n3)nc(O)c21` [Example 119A, (S)-5-(4-fluorophenyl)-4-hydroxy-5-methyl-2-(8-(3,3,4,4,4-pentafluorobutyl)-[1,2,4]triazolo[1,5-a]pyrazin-6-yl)-5,7-dihydro-6H-pyrrolo[2,3-d]pyrimidin-6-one]: the “Maximum peak decrease” value in assay [1] (P.O. 1 mpk) is on record as “B (Category B=SBP in SHRs 20-40 mmHg)”. For the same molecule, the Emax at sGC α1/β1 heterodimer was determined as 124%.
For `CC1(c2ccc(Cl)cn2)C(=O)Nc2nc(-c3cn4ncnc4c(CCC(F)(F)C(F)(F)F)n3)nc(O)c21` (stereo not drawn) [Example 120A, 5-(5-chloropyridin-2-yl)-4-hydroxy-5-methyl-2-(8-(3,3,4,4,4-pentafluorobutyl)-[1,2,4]triazolo[1,5-a]pyrazin-6-yl)-5H-pyrrolo[2,3-d]pyrimidin-6(7H)-one], in assay [1] (P.O. 1 mpk), the “Maximum peak decrease” value is “B (Category B=SBP in SHRs 20-40 mmHg)”. For the same molecule, on sGC α1/β1 heterodimer, the Emax is 107%.
Taken in the same sequence, the figures for `CC1(c2ccc(Cl)c(F)c2)C(=O)Nc2nc(-c3cn4ncnc4c(CCC(F)(F)C(F)(F)F)n3)nc(O)c21` (stereo not drawn) [Example 121B, 5-(4-chloro-3-fluorophenyl)-4-hydroxy-5-methyl-2-(8-(3,3,4,4,4-pentafluorobutyl)-[1,2,4]triazolo[1,5-a]pyrazin-6-yl)-5H-pyrrolo[2,3-d]pyrimidin-6(7H)-one] were “B (Category B=SBP in SHRs 20-40 mmHg)” and 222%.
Regarding `CC1(c2ccc(F)cn2)C(=O)Nc2nc(-c3cn4ncnc4c(CCC(F)(F)C(F)(F)F)n3)nc(O)c21` (stereo not drawn) [Example 122B, 5-(5-fluoropyridin-2-yl)-4-hydroxy-5-methyl-2-(8-(3,3,4,4,4-pentafluorobutyl)-[1,2,4]triazolo[1,5-a]pyrazin-6-yl)-5H-pyrrolo[2,3-d]pyrimidin-6(7H)-one], in assay [1] (P.O. 1 mpk), the “Maximum peak decrease” value is “B (Category B=SBP in SHRs 20-40 mmHg)”. Also, the Emax at sGC α1/β1 heterodimer came to 100%.
For `CC1(c2cncc(F)c2)C(=O)Nc2nc(-c3cn4ncnc4c(CCC(F)(F)C(F)(F)F)n3)nc(O)c21` (stereo not drawn) [Example 125A, 5-(5-fluoropyridin-3-yl)-4-hydroxy-5-methyl-2-(8-(3,3,4,4,4-pentafluorobutyl)-[1,2,4]triazolo[1,5-a]pyrazin-6-yl)-5H-pyrrolo[2,3-d]pyrimidin-6(7H)-one], the “Maximum peak decrease” value in assay [1] (P.O. 3 mpk) is reported as “A (Category A=SBP in SHRs <20 mmHg)”. For the same molecule, the Emax at sGC α1/β1 heterodimer is 87%.
On to `Cc1nc2c(CCC(F)(F)C(F)(F)F)nc(-c3nc(O)c4c(n3)NC(=O)C4(C)c3ccc(Cl)c(F)c3)cn2n1` (stereo not drawn) [Example 132B, 5-(4-chloro-3-fluorophenyl)-4-hydroxy-5-methyl-2-(2-methyl-8-(3,3,4,4,4-pentafluorobutyl)-[1,2,4]triazolo[1,5-a]pyrazin-6-yl)-5H-pyrrolo[2,3-d]pyrimidin-6(7H)-one], for which the “Maximum peak decrease” value in assay [1] (P.O. 1 mpk) is “A (Category A=SBP in SHRs <20 mmHg)”. For the same molecule, the Emax at sGC α1/β1 heterodimer turned out to be 119%.
Consider `CC1(c2ccc(Cl)cn2)C(=O)Nc2nc(-c3cn4ncnc4c(CCCC(F)(F)F)n3)nc(O)c21` (stereo not drawn) [Example 134A, 5-(5-chloropyridin-2-yl)-4-hydroxy-5-methyl-2-(8-(4,4,4-trifluorobutyl)-[1,2,4]triazolo[1,5-a]pyrazin-6-yl)-5H-pyrrolo[2,3-d]pyrimidin-6(7H)-one], for which the “Maximum peak decrease” value in assay [1] (P.O. 1 mpk) is recorded as “B (Category B=SBP in SHRs 20-40 mmHg)”. The Emax on sGC α1/β1 heterodimer is 134%.
In the same order, the values of `C[C@@]1(c2ccc(F)cc2)C(=O)Nc2nc(-c3cn4ncnc4c(CCCC(F)(F)F)n3)nc(O)c21` [Example 135A, 5-(4-fluorophenyl)-4-hydroxy-5-methyl-2-(8-(4,4,4-trifluorobutyl)-[1,2,4]triazolo[1,5-a]pyrazin-6-yl)-5,7-dihydro-6H-pyrrolo[2,3-d]pyrimidin-6-one] are “B (Category B=SBP in SHRs 20-40 mmHg)” and 108%.
With `CC1(c2ccc(F)cn2)C(=O)Nc2nc(-c3cn4ncnc4c(CCCC(F)(F)F)n3)nc(O)c21` (stereo not drawn) [Example 136B, 5-(5-fluoropyridin-2-yl)-4-hydroxy-5-methyl-2-(8-(4,4,4-trifluorobutyl)-[1,2,4]triazolo[1,5-a]pyrazin-6-yl)-5H-pyrrolo[2,3-d]pyrimidin-6(7H)-one], the “Maximum peak decrease” value in assay [1] (P.O. 3 mpk) is recorded as “B (Category B=SBP in SHRs 20-40 mmHg)”. At sGC α1/β1 heterodimer, the Emax was 69%.
On to `CC1(c2ccc(Cl)c(F)c2)C(=O)Nc2nc(-c3cn4ncnc4c(CCCC(F)(F)F)n3)nc(O)c21` (stereo not drawn) [Example 138B, 5-(4-chloro-3-fluorophenyl)-4-hydroxy-5-methyl-2-(8-(4,4,4-trifluorobutyl)-[1,2,4]triazolo[1,5-a]pyrazin-6-yl)-5H-pyrrolo[2,3-d]pyrimidin-6(7H)-one], for which the “Maximum peak decrease” value in assay [1] (P.O. 1 mpk) is “C (Category C=SBP in SHRs >40 mmHg)”. Also, the Emax at sGC α1/β1 heterodimer was 164%.
Taken in the same sequence, the figures for `O=C1Nc2nc(-c3cn4ncnc4c(CCCC(F)(F)F)n3)nc(O)c2C1(c1ccc(Cl)cc1)C1CC1` (stereo not drawn) [Example 140B, 5-(4-chlorophenyl)-5-cyclopropyl-4-hydroxy-2-(8-(4,4,4-trifluorobutyl)-[1,2,4]triazolo[1,5-a]pyrazin-6-yl)-5H-pyrrolo[2,3-d]pyrimidin-6(7H)-one] were “A (Category A=SBP in SHRs <20 mmHg)” and 150%.
As to `O=C1Nc2nc(-c3cn4ncnc4c(CCCC(F)(F)F)n3)nc(O)c2C1(c1ccc(F)c(F)c1)C1CC1` (stereo not drawn) [Example 141A, 5-cyclopropyl-5-(3,4-difluorophenyl)-4-hydroxy-2-(8-(4,4,4-trifluorobutyl)-[1,2,4]triazolo[1,5-a]pyrazin-6-yl)-5H-pyrrolo[2,3-d]pyrimidin-6(7H)-one], the “Maximum peak decrease” value in assay [1] (P.O. 1 mpk) is listed as “B (Category B=SBP in SHRs 20-40 mmHg)”. In addition, the Emax at sGC α1/β1 heterodimer was 133%.
`CC1(c2ccc(Cl)cc2)C(=O)Nc2nc(-c3cn4ncnc4c(CCCC(F)(F)F)n3)nc(O)c21` (stereo not drawn) [Example 142A, 5-(4-chlorophenyl)-4-hydroxy-5-methyl-2-(8-(4,4,4-trifluorobutyl)-[1,2,4]triazolo[1,5-a]pyrazin-6-yl)-5H-pyrrolo[2,3-d]pyrimidin-6(7H)-one]: in assay [1] (P.O. 0.3 mpk), the “Maximum peak decrease” value is recorded as “B (Category B=SBP in SHRs 20-40 mmHg)”. The Emax on sGC α1/β1 heterodimer is 137%.

(Values after patent US10925876B2, “Methods for using triazolo-pyrazinyl soluble guanylate cyclase activators in fibrotic disorders” (Merck Sharp & Dohme Corp., priority 2016, dated 2021).)
